Results published in paper PMC8421423, “Cellular model system to dissect the isoform-selectivity of Akt inhibitors” (Nature Communications, 2021).
Values joined by “and” are separate entries in the source; they are usually repeats but may differ in a detail not shown here. Equal values may be shown once. Read-outs that look alike come from different tables or passages of the source.

Legend:
parental Ba/F3 cells = assay: CellTiter-Glo cell viability assay; format: cell-based, murine; conditions: single replicates, read-out: CTG BaF3, individual determinations
Ba/F3^myr-Akt1 cells = assay: CellTiter-Glo cell viability assay; conditions: for Log ratio EC50 [Akt] / EC50 [Akt], Akt1 / Akt2: cell viability assay Ba/F3 myr-Akt cells, log units
Ba/F3^myr-Akt2 cells = assay: CellTiter-Glo cell viability assay
Ba/F3^myr-Akt3 cells = assay: CellTiter-Glo cell viability assay; conditions: for Log ratio EC50 [Akt] / EC50 [Akt], Akt3 / Akt2: cell viability assay Ba/F3 myr-Akt cells, log units
Akt1 [1] = target: T1, Akt1 (Homo sapiens, UniProt P31749); assay: STK HTRF KinEASE activity-based assay (IC50); conditions: for Log ratio IC50 [Akt] / IC50 [Akt], Akt1 / Akt2: biochemical activity based assay, log units
T1 sequence (P31749 whole entry): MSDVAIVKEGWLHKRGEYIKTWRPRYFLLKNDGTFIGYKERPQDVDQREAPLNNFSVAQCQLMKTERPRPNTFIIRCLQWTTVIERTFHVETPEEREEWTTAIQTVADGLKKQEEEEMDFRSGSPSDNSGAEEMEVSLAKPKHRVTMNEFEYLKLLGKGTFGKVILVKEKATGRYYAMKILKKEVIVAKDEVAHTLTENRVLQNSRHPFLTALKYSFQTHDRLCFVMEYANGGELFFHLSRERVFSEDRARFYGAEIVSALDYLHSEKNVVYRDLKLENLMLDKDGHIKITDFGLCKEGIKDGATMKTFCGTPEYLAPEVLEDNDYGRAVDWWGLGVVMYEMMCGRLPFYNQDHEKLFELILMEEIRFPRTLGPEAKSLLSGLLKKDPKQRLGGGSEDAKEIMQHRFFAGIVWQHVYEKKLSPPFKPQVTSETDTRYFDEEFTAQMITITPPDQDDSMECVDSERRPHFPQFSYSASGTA
Method: (§1) The biochemical half maximal inhibitory concentrations (IC50) were determined with the STK HTRF KinEASE assay (Cisbio) according to the manufactor’s instructions. Briefly: 5 µL Kinase solution and 2.5 µL inhibitor solution (8% DMSO in HTRF buffer) were incubated for 1 h before the reaction was started by addition of 2.5 µL starting solution containing ATP and substrate peptide. […] After reaction completion (Akt1: 60 min, Akt2: 20 min, Akt3: 15 min), 10 µL of stop solution were added. […] The quotient of both intensities were recorded at eight different inhibitor concentrations and data fit to a Hill 4-parameter equation with Quattro software suite (Quattro Research GmbH, Martinsried, Germany). Each reaction was performed in duplicates and at least three independent determinations of each IC50 were made.

Akt2 [2] = target: T2, Akt2 (Homo sapiens, UniProt P31751); assay: STK HTRF KinEASE activity-based assay (IC50)
T2 sequence (P31751 whole entry): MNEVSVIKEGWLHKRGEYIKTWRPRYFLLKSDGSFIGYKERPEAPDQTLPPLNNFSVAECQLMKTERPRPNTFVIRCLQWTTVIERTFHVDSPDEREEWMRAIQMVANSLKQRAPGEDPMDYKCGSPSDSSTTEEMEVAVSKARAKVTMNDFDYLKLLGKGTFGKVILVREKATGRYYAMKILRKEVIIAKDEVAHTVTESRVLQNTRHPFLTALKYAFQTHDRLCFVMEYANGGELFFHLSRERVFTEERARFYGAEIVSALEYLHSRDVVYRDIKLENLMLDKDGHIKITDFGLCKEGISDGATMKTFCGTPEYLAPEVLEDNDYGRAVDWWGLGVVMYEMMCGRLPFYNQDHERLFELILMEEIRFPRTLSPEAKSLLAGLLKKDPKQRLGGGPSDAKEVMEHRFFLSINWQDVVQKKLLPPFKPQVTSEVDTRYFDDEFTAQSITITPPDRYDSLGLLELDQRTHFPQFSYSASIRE
Method: as §1

Akt3 = Akt3 (Homo sapiens, UniProt Q9Y243); assay: STK HTRF KinEASE activity-based assay (IC50)
Chain of Akt3 (Q9Y243 whole entry): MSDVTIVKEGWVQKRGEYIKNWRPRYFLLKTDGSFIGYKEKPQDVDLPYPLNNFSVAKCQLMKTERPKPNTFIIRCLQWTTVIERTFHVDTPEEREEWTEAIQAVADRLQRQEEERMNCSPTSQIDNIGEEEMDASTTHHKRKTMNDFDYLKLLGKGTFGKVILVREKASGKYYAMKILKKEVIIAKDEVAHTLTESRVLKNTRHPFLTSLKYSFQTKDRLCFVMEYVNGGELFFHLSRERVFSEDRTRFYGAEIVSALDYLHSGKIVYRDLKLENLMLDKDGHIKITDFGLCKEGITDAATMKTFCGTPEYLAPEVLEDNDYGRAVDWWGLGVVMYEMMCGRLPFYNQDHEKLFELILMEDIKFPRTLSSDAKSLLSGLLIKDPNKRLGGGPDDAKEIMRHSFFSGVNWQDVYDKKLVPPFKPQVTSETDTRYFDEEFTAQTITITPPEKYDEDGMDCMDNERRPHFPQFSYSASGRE

Akt1 [3] = target: T1, Akt1; assay: PhosphoSens continuous fluorometric kinetic enzyme assay
Method: (§2) By addition of either 8 nM Akt1, 2 nM Akt2, or 5 nM Akt3 (final concentrations) the reactions were initiated. […] Afterwards the kobs-values were plotted versus the inhibitor concentrations [I] and then fit to the following hyperbolic Eq.

Akt2 [4] = target: T2, Akt2; assay: as above
Method: as §2

[5] = Mus musculus, read-out: CTG BaF3myr-Akt1, individual determinations, single replicates
[6] = read-out: CTG BaF3myr-Akt1, individual determinations, single replicates
[7] = Mus musculus, read-out: CTG BaF3myr-Akt2, Mean, mean of replicates
[8] = Mus musculus, read-out: CTG BaF3myr-Akt2, individual determinations, single replicates
[9] = read-out: CTG BaF3myr-Akt2, individual determinations, single replicates
[10] = Mus musculus, read-out: CTG BaF3myr-Akt3, Mean, mean of replicates
[11] = Mus musculus, read-out: CTG BaF3myr-Akt3, individual determinations, single replicates
[12] = read-out: CTG BaF3myr-Akt3, individual determinations, single replicates
[13] = HTRF IC50 Akt1, Mean, mean of replicates
[14] = HTRF IC50 Akt1, individual determinations, single replicates
[15] = IC50 Akt1, HTRF, ATP at KM, 1 h preincubation
[16] = HTRF IC50 Akt2, Mean, mean of replicates
[17] = HTRF IC50 Akt2, individual determinations, single replicates
[18] = IC50 Akt2, HTRF, ATP at KM, 1 h preincubation
[19] = HTRF IC50 Akt3, Mean, mean of replicates
[20] = HTRF IC50 Akt3, individual determinations, single replicates
[21] = IC50 Akt3, HTRF, ATP at KM, 1 h preincubation
[22] = Ki Akt2, Mean, mean of replicates
[23] = Ki Akt2, individual determinations, single replicates
[24] = read-out: kinact /Ki Akt2, individual determinations, single replicates
[25] = read-out: kinact Akt2, Mean, mean of replicates
[26] = read-out: kinact Akt2, individual determinations, single replicates

## C=CC(=O)Nc1ccc2[nH]c(=O)n(C3CCN(Cc4ccc(-c5ncc(C(=O)Nc6cnn(C)c6)cc5-c5ccccc5)cc4)CC3)c2c1 [compound 13]
Parental Ba/F3 cells; parental cells
  EC50: 9100 nM and 28800 nM and > 30000 nM
Ba/F3^myr-Akt1 cells; Mus musculus, read-out: CTG BaF3myr-Akt1, Mean, mean of replicates
  EC50: 19300 nM
Ba/F3^myr-Akt1 cells; [5]
  EC50: 21300 nM
Ba/F3^myr-Akt1 cells
  Log ratio EC50 [Akt] / EC50 [Akt], Akt1 / Akt2: 0.43
Ba/F3^myr-Akt1 cells; [6]
  EC50: 19500 nM and 17100 nM
Ba/F3^myr-Akt2 cells; [7]
  EC50: 7180 nM
Ba/F3^myr-Akt2 cells; [8]
  EC50: 7180 nM
Ba/F3^myr-Akt2 cells; [9]
  EC50: 6220 nM and 7660 nM
Ba/F3^myr-Akt3 cells; [10]
  EC50: 22600 nM
Ba/F3^myr-Akt3 cells; [11]
  EC50: 25800 nM
Ba/F3^myr-Akt3 cells
  Log ratio EC50 [Akt] / EC50 [Akt], Akt3 / Akt2: -0.50
Ba/F3^myr-Akt3 cells; [12]
  EC50: 26500 nM and 15600 nM
Akt1 [1]; [13]
  IC50: 97.6 nM
Akt1 [1]; [14]
  IC50: 113 nM and 96 nM and 84.4 nM
Akt1 [1]; [15]
  IC50: 98 ± 15 nM
Akt1 [1]
  Log ratio IC50 [Akt] / IC50 [Akt], Akt1 / Akt2: 0.27
Akt2 [2]; [16]
  IC50: 53.5 nM
Akt2 [2]; [17]
  IC50: 53.9 nM and 59.1 nM and 47.4 nM
Akt2 [2]; [18]
  IC50: 53 ± 5 nM
Akt3; [19]
  IC50: 3540 nM
Akt3; [20]
  IC50: 3080 nM and 3130 nM and 4410 nM
Akt3; [21]
  IC50: 3540 ± 617 nM
Akt1 [3]; Ki Akt1
  Ki: 8 ± 2 nM
Akt1 [3]; Ki Akt1, Mean, mean of replicates
  Ki: 8.12 nM
Akt1 [3]; Ki Akt1, individual determinations, single replicates
  Ki: 5.5 nM and 10.9 nM
Akt1 [3]; read-out: kinact /Ki Akt1
  kinact/KI: 31000 ± 11000 M⁻¹ s⁻¹
Akt1 [3]; read-out: kinact /Ki Akt1, Mean, mean of replicates
  kinact/KI: 31000 M⁻¹ s⁻¹
Akt1 [3]; read-out: kinact Akt1
  kinact: 0.000233 s⁻¹
Akt1 [3]; read-out: kinact Akt1, individual determinations, single replicates
  kinact: 0.00025 s⁻¹
Akt1 [3]; single replicates
  kinact Akt1, individual determinations: 0.012 min⁻¹ and 0.015 min⁻¹
Akt2 [4]; Ki Akt2
  Ki: 40 ± 3 nM
Akt2 [4]; [22]
  Ki: 40.8 nM
Akt2 [4]; [23]
  Ki: 42.3 nM (2×) and 37.7 nM
Akt2 [4]; read-out: kinact /Ki Akt2
  kinact/KI: 8000 ± 1000 M⁻¹ s⁻¹
Akt2 [4]; read-out: kinact /Ki Akt2, Mean, mean of replicates
  kinact/KI: 7580 M⁻¹ s⁻¹
Akt2 [4]; [24]
  kinact/KI: 7430 M⁻¹ s⁻¹
Akt2 [4]; read-out: kinact Akt2
  kinact: 0.000317 s⁻¹
Akt2 [4]; [25]
  kinact: 0.000317 s⁻¹
Akt2 [4]; [26]
  kinact: 0.000317 s⁻¹
Akt2 [4]; single replicates
  kinact /Ki Akt2, individual determinations: 0.00743
  kinact Akt2, individual determinations: 0.019 min⁻¹ and 0.018 min⁻¹

## C=CC(=O)Nc1ccc2[nH]c(=O)n(C3CCN(Cc4ccc(-c5ncc(C(=O)NCC(C)C)cc5-c5ccccc5)cc4)CC3)c2c1 [compound 10]
Parental Ba/F3 cells; Mus musculus, BaF3, parental cells
  EC50: 15300 nM
Parental Ba/F3 cells; parental cells
  EC50: 19400 nM and > 30000 nM
Ba/F3^myr-Akt1 cells; [5]
  EC50: > 30000 nM
Ba/F3^myr-Akt1 cells
  Log ratio EC50 [Akt] / EC50 [Akt], Akt1 / Akt2: 0.52
Ba/F3^myr-Akt1 cells; [6]
  EC50: 28800 nM and 21100 nM
Ba/F3^myr-Akt2 cells; [7]
  EC50: 7990 nM
Ba/F3^myr-Akt2 cells; [8]
  EC50: 7980 nM
Ba/F3^myr-Akt2 cells; [9]
  EC50: 5410 nM and 9280 nM
Ba/F3^myr-Akt3 cells; [10]
  EC50: 24300 nM
Ba/F3^myr-Akt3 cells; [11]
  EC50: 25300 nM
Ba/F3^myr-Akt3 cells
  Log ratio EC50 [Akt] / EC50 [Akt], Akt3 / Akt2: -0.48
Ba/F3^myr-Akt3 cells; [12]
  EC50: 25700 nM and 21800 nM
Akt1 [1]; [13]
  IC50: 1720 nM
Akt1 [1]; [14]
  IC50: 1890 nM and 1690 nM and 1560 nM
Akt1 [1]; [15]
  IC50: 1720 ± 166 nM
Akt1 [1]
  Log ratio IC50 [Akt] / IC50 [Akt], Akt1 / Akt2: 1.26
Akt2 [2]; [16]
  IC50: 93.7 nM
Akt2 [2]; [17]
  IC50: 92.4 nM and 89.8 nM and 98.9 nM
Akt2 [2]; [18]
  IC50: 94 ± 4 nM
Akt3; [19]
  IC50: 1560 nM
Akt3; [20]
  IC50: 1650 nM and 1470 nM and 1570 nM
Akt3; [21]
  IC50: 1560 ± 75 nM
Akt2 [4]; Ki Akt2
  Ki: 4 ± 1 nM
Akt2 [4]; [22]
  Ki: 4.18 nM
Akt2 [4]; [23]
  Ki: 5.1 nM and 4.1 nM and 3.3 nM
Akt2 [4]; read-out: kinact /Ki Akt2
  kinact/KI: 25000 ± 5000 M⁻¹ s⁻¹
Akt2 [4]; [24]
  kinact/KI: 27000 M⁻¹ s⁻¹
Akt2 [4]; read-out: kinact Akt2
  kinact: 0.0001 s⁻¹
Akt2 [4]; [25]
  kinact: 0.0001 s⁻¹
Akt2 [4]; [26]
  kinact: 0.000133 s⁻¹
Akt2 [4]; single replicates
  kinact Akt2, individual determinations: 0.00457 min⁻¹ and 0.006 min⁻¹
